Laboratory results: patent publication US20060276464A1, “Diarylsulfone sulfonamides and use thereof” (Wyeth, priority 2005, published 2006)
pEC50, pIC50: −log10 of the molar value.

Legend:
SFRP-1 [1] = molecular target: T1, SFRP-1 (Homo sapiens, UniProt Q8N474); assay: Fluorescence polarization binding assay (competitive displacement of a probe compound from SFRP-1); conditions: fluorescence anisotropy, 45 nM SFRP-1, 20 nM probe;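 further: test compound competes with a fluorescent probe held by SFRP-1, seen as a drop in probe anisotropy after incubation in darkness, with anisotropy as function of rising compound dose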
T1 sequence (Q8N474 32-314): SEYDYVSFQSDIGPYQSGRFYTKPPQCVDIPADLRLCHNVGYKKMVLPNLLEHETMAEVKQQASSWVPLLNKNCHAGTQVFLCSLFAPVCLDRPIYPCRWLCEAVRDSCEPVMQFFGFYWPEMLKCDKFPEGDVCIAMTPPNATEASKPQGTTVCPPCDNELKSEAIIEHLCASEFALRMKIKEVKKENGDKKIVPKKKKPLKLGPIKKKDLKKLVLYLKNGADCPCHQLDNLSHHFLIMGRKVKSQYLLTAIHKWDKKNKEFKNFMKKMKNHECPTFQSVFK

SFRP-1 [2] = molecular target: T1, SFRP-1; assay: Cell-based assay for in vitro measurement of SFRP-1/SARP2 antagonist activity (U2OS cells co-transfected with 16x TCF-tk-Luciferase reporter, Wnt and hSFRP-1); conditions: for fold induction at 10 µM: U2OS, read-out: Fold Induction with SFRP-1, U2OS cells, single dose 10 μM, luciferase reporter, fold induction over SFRP-1 control;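 on all read-outs here: U2OS cells co-transfected with a TCF-tk luciferase reporter, a Wnt vector, hSFRP-1 or empty vector and CMV-βgal, luciferase luminescence read in cell lysates alongside βgal activity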

Row | pIC50 (SFRP-1 [1]) | pEC50 (SFRP-1 [2]) | fold induction at 10 µM (SFRP-1 [2]) | SMILES
1 | 6.52 | 5.03 | 3.3 | O=C(c1ccc(C(F)(F)F)c(F)c1)N1CCC(NS(=O)(=O)c2cc(S(=O)(=O)c3ccccc3)ccc2C(F)(F)F)CC1 [Example 711, N-{1-[3-fluoro-4-(trifluoromethyl)benzoyl]piperidin-4-yl}-5-(phenylsulfonyl)-2-(trifluoromethyl)benzenesulfonamide]
2 | 6.30 | – | 2.9 | O=C(c1ccc(Cl)c(Cl)c1)N1CCC(NS(=O)(=O)c2cc(S(=O)(=O)c3ccccc3)ccc2C(F)(F)F)CC1 [Example 712, N-[1-(3,4-dichlorobenzoyl)piperidin-4-yl]-5-(phenylsulfonyl)-2-(trifluoromethyl)benzenesulfonamide]
3 | 6.40 | 5.89 | 4.9 | COc1cc(C(=O)N2CCC(NS(=O)(=O)c3cc(S(=O)(=O)c4ccccc4)ccc3C(F)(F)F)CC2)cc(Cl)n1 [Example 715, N-[1-(2-chloro-6-methoxyisonicotinoyl)piperidin-4-yl]-5-(phenylsulfonyl)-2-(trifluoromethyl)benzenesulfonamide]
4 | 6.52 | 5.75 | 4.2 | O=C(c1ccc(F)cc1Cl)N1CCC(NS(=O)(=O)c2cc(S(=O)(=O)c3ccccc3)ccc2C(F)(F)F)CC1 [Example 716, N-[1-(2-chloro-4-fluorobenzoyl)piperidin-4-yl]-5-(phenylsulfonyl)-2-(trifluoromethyl)benzenesulfonamide]
5 | 6.77 | 5.89 | 5.3 | O=C(c1c(F)cc(F)cc1F)N1CCC(NS(=O)(=O)c2cc(S(=O)(=O)c3ccccc3)ccc2C(F)(F)F)CC1 [Example 717, 5-(phenylsulfonyl)-N-[1-(2,4,6-trifluorobenzoyl)piperidin-4-yl]-2-(trifluoromethyl)benzenesulfonamide]
6 | 6.40 | 6.67 | 6.7 | CC(C)(C)c1ccc(C(=O)N2CCC(NS(=O)(=O)c3cc(S(=O)(=O)c4ccccc4)ccc3C(F)(F)F)CC2)cc1 [Example 718, N-[1-(4-tert-butylbenzoyl)piperidin-4-yl]-5-(phenylsulfonyl)-2-(trifluoromethyl)benzenesulfonamide]
7 | 6.70 | 6.36 | 2.1 | CC(=O)Nc1ccc(C(=O)N2CCC(NS(=O)(=O)c3cc(S(=O)(=O)c4ccccc4)ccc3C(F)(F)F)CC2)cc1 [Example 719, N-(4-{[4-({[5-(phenylsulfonyl)-2-(trifluoromethyl)phenyl]sulfonyl}amino)piperidin-1-yl]carbonyl}phenyl)acetamide]
8 | 5.22 | – | 2 | O=S(=O)(N[C@H](CO)Cc1ccccc1)c1cc(S(=O)(=O)c2ccccc2)ccc1C(F)(F)F [Example 720, N-[(1S)-1-benzyl-2-hydroxyethyl]-5-(phenylsulfonyl)-2-(trifluoromethyl)benzenesulfonamide]
9 | 5.70 | – | 2.7 | O=S(=O)(N[C@H](CO)Cc1c[nH]c2ccccc12)c1cc(S(=O)(=O)c2ccccc2)ccc1C(F)(F)F [Example 721, N-[(1S)-2-hydroxy-1-(1H-indol-3-ylmethyl)ethyl]-5-(phenylsulfonyl)-2-(trifluoromethyl)benzenesulfonamide]
10 | 6.70 | 6.10 | 4.5 | O=S(=O)(NCCc1ccc[n+]([O-])c1)c1cc(S(=O)(=O)c2ccccc2)ccc1C(F)(F)F [Example 723, N-[2-(1-oxidopyridin-3-yl)ethyl]-5-(phenylsulfonyl)-2-(trifluoromethyl)benzenesulfonamide]
11 | 6.30 | 5.90 | 3.1 | C[C@@H](CO)NS(=O)(=O)c1cc(S(=O)(=O)c2ccccc2)ccc1C(F)(F)F [Example 725, N-[(1S)-2-hydroxy-1-methylethyl]-5-(phenylsulfonyl)-2-(trifluoromethyl)benzenesulfonamide]
12 | 6.10 | – | 3 | C[C@H](CO)NS(=O)(=O)c1cc(S(=O)(=O)c2ccccc2)ccc1C(F)(F)F [Example 726, N-[(1R)-2-hydroxy-1-methylethyl]-5-(phenylsulfonyl)-2-(trifluoromethyl)benzenesulfonamide]
13 | 5.00 | – | 3.2 | CC(C)c1ccc(S(=O)(=O)c2ccc(F)cc2)cc1S(=O)(=O)NCC(O)c1ccccn1 (stereo not shown) [Example 727, 5-[(4-fluorophenyl)sulfonyl]-N-(2-hydroxy-2-pyridin-2-ylethyl)-2-isopropylbenzenesulfonamide]
14 | 5.40 | – | 3.1 | CC(C)c1ccc(S(=O)(=O)c2ccccc2)cc1S(=O)(=O)NCC(O)c1ccccn1 (stereo not shown) [Example 728, N-(2-hydroxy-2-pyridin-2-ylethyl)-2-isopropyl-5-(phenylsulfonyl)benzene-sulfonamide]
15 | 4.82 | – | 1.7 | Cc1cc(C)c(S(=O)(=O)c2ccccc2)cc1S(=O)(=O)NCC(O)c1ccccn1 (stereo not shown) [Example 729, N-(2-hydroxy-2-pyridin-2-ylethyl)-2,4-dimethyl-5-(phenylsulfonyl)benzenesulfonamide]
16 | 5.72 | – | 3.3 | CC(C)c1ccc(S(=O)(=O)c2ccc(F)cc2)cc1S(=O)(=O)NCC(O)c1cccnc1 (stereo not shown) [Example 731, 5-[(4-fluorophenyl)sulfonyl]-N-(2-hydroxy-2-pyridin-3-ylethyl)-2-isopropylbenzenesulfonamide]
17 | 5.96 | – | 4.2 | CC(C)c1ccc(S(=O)(=O)c2ccc(F)cc2)cc1S(=O)(=O)NCC(O)c1ccccc1 (stereo not shown) [Example 732, 5-[(4-fluorophenyl)sulfonyl]-N-(2-hydroxy-2-phenylethyl)-2-isopropylbenzenesulfonamide]
18 | 5.00 | – | 2.5 | CC(CO)NS(=O)(=O)c1cc(S(=O)(=O)c2ccc(F)cc2)ccc1C(C)C (stereo not shown) [Example 733, 5-[(4-fluorophenyl)sulfonyl]-N-(2-hydroxy-1-methylethyl)-2-isopropylbenzenesulfonamide]
19 | 6.05 | – | 4.1 | CC(C)c1ccc(S(=O)(=O)c2ccccc2)cc1S(=O)(=O)NCC(O)c1cccnc1 (stereo not shown) [Example 735, N-(2-hydroxy-2-pyridin-3-ylethyl)-2-isopropyl-5-(phenylsulfonyl)benzenesulfonamide]
20 | 6.40 | 5.76 | 5 | CC(C)c1ccc(S(=O)(=O)c2ccccc2)cc1S(=O)(=O)NCC(O)c1ccccc1 (stereo not shown) [Example 736, N-(2-hydroxy-2-phenylethyl)-2-isopropyl-5-(phenylsulfonyl)benzenesulfonamide]
21 | 5.15 | – | 2.9 | CCC(O)CNS(=O)(=O)c1cc(S(=O)(=O)c2ccc(F)cc2)ccc1C(C)C (stereo not shown) [Example 738, 5-[(4-fluorophenyl)sulfonyl]-N-(2-hydroxybutyl)-2-isopropylbenzenesulfonamide]
22 | 6.74 | 6.14 | 5.1 | O=S(=O)(NCCn1ccnc1)c1cc(S(=O)(=O)c2ccccc2)ccc1C(F)(F)F [Example 739, N-[2-(1H-Imidazol-1-yl)ethyl]-5-(phenylsulfonyl)-2-(trifluoromethyl)benzenesulfonamide]
23 | 5.22 | – | 3.3 | Cc1ccc(S(=O)(=O)c2ccc(F)cc2)cc1S(=O)(=O)NCC(O)c1cccnc1 (stereo not shown) [Example 740, 5-[(4-fluorophenyl)sulfonyl]-N-(2-hydroxy-2-pyridin-3-ylethyl)-2-methylbenzenesulfonamide]
24 | 6.52 | 6.00 | 4.8 | O=S(=O)(NCC(O)c1cccnc1)c1cc(S(=O)(=O)c2ccccc2)ccc1C(F)(F)F (stereo not shown) [Example 741, N-(2-hydroxy-2-pyridin-3-ylethyl)-5-(phenylsulfonyl)-2-(trifluoromethyl)benzenesulfonamide]
25 | 6.55 | – | 2.4 | CC(C)(C)OC(=O)NCCNS(=O)(=O)c1cc(S(=O)(=O)c2ccccc2)ccc1C(F)(F)F [Example 742, tert-Butyl[2-({[5-(phenylsulfonyl)-2-(trifluoromethyl)phenyl]sulfonyl}amino)ethyl]carbamate]
26 | 6.70 | 6.07 | 3.1 | O=S(=O)(NC1CCOCC1)c1cc(S(=O)(=O)c2cccc(O)c2)ccc1C(F)(F)F [Example 744, 5-[(3-hydroxyphenyl)sulfonyl]-N-(tetrahydro-2H-pyran-4-yl)-2-(trifluoromethyl)benzenesulfonamide]
27 | 6.40 | 6.20 | 4.5 | COc1cccc(S(=O)(=O)c2ccc(C(F)(F)F)c(S(=O)(=O)NCCC#N)c2)c1 [Example 745, N-(2-cyanoethyl)-5-[(3-methoxyphenyl)sulfonyl]-2-(trifluoromethyl)benzenesulfonamide]
28 | 6.52 | 6.34 | 5 | COc1cccc(S(=O)(=O)c2ccc(C(F)(F)F)c(S(=O)(=O)NC3CCN(C(=O)c4ccc(C(C)(C)C)cc4)CC3)c2)c1 [Example 746, N-[1-(4-tert-butylbenzoyl)piperidin-4-yl]-5-[(3-methoxyphenyl)sulfonyl]-2-(trifluoromethyl)benzenesulfonamide]
29 | 7.05 | 6.11 | 5.7 | COc1cccc(S(=O)(=O)c2ccc(C(F)(F)F)c(S(=O)(=O)NCCc3cccnc3)c2)c1 [Example 747, 5-[(3-methoxyphenyl)sulfonyl]-N-(2-pyridin-3-ylethyl)-2-(trifluoromethyl)benzenesulfonamide]
